Results taken from US9309231B2, “Bridged ring compounds as hepatitis C virus (HCV) inhibitors and pharmaceutical applications thereof” (SUNSHINE LAKE PHARMA CO., LTD, priority 2012, dated 2016).

Columns and labels:
HCV GT1b replicon cells = test: HCV replicon assay, GT1b replicon cells; type: cell-based; settings: Hepatitis C virus, 72 hours incubation, luciferase reporter or NEO gene qPCR readout, read-out: EC50 against HCV 1b genotype
Procedure: (§1) An HCV Replicon assay was utilized in the present disclosure, and was prepared, developed and validated as described in Science, 1999, 285 (5424), 110-3 and J. Virol., 2003, 77 (5), 3007-19.
(§2) HCV GT1a, GT1b and GT2a replicon cells were used to test the currently described compound series as well as wild-type cells HCV 1b and resistant cells Y^93H, L31F, P32L and I302V. GT1a and CT1b are HCV Replicon System which is transfected HCV 1a, 1b genotype respectively.
(§3) 1. Testing EC50 of the Compounds by Luciferase Assay
(§4) The GT1b cells and GT1a cells were seeded into 96-well plates (8,000 cells in 125 μl/well) respectively; each compound was diluted to desired concentration using 5-fold serial dilutions protocol, 10 dose in duplicate, and added to wells with POD™ 810 Plate Assembler. The final concentration of DMSO was 0.5%; the plates were incubated in a CO2 incubator for 72 hours; after that, 40 μl of Luciferase assay substrate (Promega Bright-Glo) was added to each well, and detected by a chemiluminescence detection system (Topcount Microplate Scintillation and Luminescence Counter) 5 minutes later; data analysis.
(§5) 2. Testing EC50 of the Compounds by Detecting Antibiotic G418 Resistance Gene NEO Gene
(§6) The GT1b cells and GT1a cells were seeded into 96-well plates (8,000 cells in 125 μl/well) respectively; each compound was diluted to desired concentration using 5-fold serial dilutions protocol, 10 dose in duplicate, and added to wells with POD™ 810 Plate Assembler., the final concentration of DMSO was 0.5%; the cells were incubated in a CO2 incubator for 72 hours; quantitative PCR. • Sample preparation: the supernatant was removed, 100 μl of FCW buffer solution was added to each well, washed carefully and discarded the solution; 50 μl of lysate FCP was added to each well, the cells was lysed as PCR template and diluted with DEPC water. • Quantitative PCR: preparation of reaction mixture according to PCR system; the reaction mixture was dispensed into a 384-well PCR reaction plate (specially for quantitative); and a standard template which was diluted in proportion was distributed into the plate; and the sample template was distributed into the plate; then the 384-well plate was sealed with closure plate membrane; the […] PCR machine was operated by procedures; data analysis.
(§7) 3. Data Processing: The EC50 Values of Compounds were Analyzed by GraphPad Prism Software.

HCV GT1a replicon cells = test: HCV replicon assay, GT1a replicon cells; type: cell-based; settings: Hepatitis C virus, 72 hours incubation, luciferase reporter or NEO gene qPCR readout, read-out: EC50 against HCV 1a genotype
Procedure: as §1, §2, §3, §4, §5, §6, §7

Structure (SMILES) | EC50 (HCV GT1b replicon cells) [nM] | EC50 (HCV GT1a replicon cells) [nM]
COC(=O)N[C@@H](C)C(=O)N1CCCC[C@H]1c1ncc(-c2ccc(-c3ccc(-c4ccc5nc([C@@H]6CCCCN6C(=O)[C@H](C)NC(=O)OC)[nH]c5c4)c4c3C3CCC4N3C)cc2)[nH]1 (some centres unmarked) [Example 35] | 0.017 | 0.103
COC(=O)N[C@H](C(=O)N1CCC[C@H]1c1ncc(-c2ccc(-c3ccc(-c4ccc5nc([C@@H]6CCCN6C(=O)[C@@H](NC(=O)OC)C(C)C)[nH]c5c4)c4c3C3CCC4C3)s2)[nH]1)C(C)C (some centres unmarked) [Example 38] | 0.017 | 0.064
COC(=O)N[C@H](C(=O)N1CCC[C@H]1c1ncc(-c2ccc(-c3ccc(-c4cnc([C@@H]5CCCN5C(=O)[C@@H](NC(=O)OC)C(C)C)[nH]4)c4c3C3CCC4C3)s2)[nH]1)C(C)C (some centres unmarked) [Example 40] | 0.012 | 0.083
COC(=O)N[C@H](C(=O)N1CCC[C@H]1c1ncc(-c2ccc(-c3ccc(-c4ccc5nc([C@@H]6CCCN6C(=O)[C@@H](NC(=O)OC)C(C)C)[nH]c5c4)c4c3C3CCC4C3)nc2)[nH]1)C(C)C (some centres unmarked) [Example 41] | 0.01 | 0.067
COC(=O)N[C@H](C(=O)N1CCC[C@H]1C(=O)Nc1ccc(-c2ccc(-c3ccc(NC(=O)[C@@H]4CCCN4C(=O)[C@@H](NC(=O)OC)C(C)C)cc3)c3c2C2CCC3C2)cc1)C(C)C [Example 43] | 0.073 | 1.13
COC(=O)N[C@H](C(=O)N1C2CC2C[C@H]1c1ncc(-c2ccc(-c3ccc(-c4ccc(-c5cnc([C@@H]6NC7CC7N6C(=O)[C@@H](NC(=O)OC)C(C)C)[nH]5)cc4)c4c3C3CCC4C3)cc2)[nH]1)C(C)C (some centres unmarked) [Example 45] | 0.113 | 3.07
COC(=O)N[C@H](C(=O)N1CCS[C@H]1c1ncc(-c2ccc(-c3ccc(-c4cnc([C@@H]5SCCN5C(=O)[C@@H](NC(=O)OC)C(C)C)[nH]4)c4c3C3CCC4C3)cc2)[nH]1)C(C)C (some centres unmarked) [Example 46] | 0.035 | 0.439
COC(=O)N[C@H](C(=O)N1CCC[C@H]1c1ncc(-c2ccc(-c3ccc(-c4ccc5nc([C@@H]6CCCN6C(=O)[C@@H](NC(=O)OC)C(C)C)[nH]c5c4)cc3)c3c2C2CCC3C2)[nH]1)C(C)C (some centres unmarked) [Example 47] | 0.013 | 0.053
COC(=O)N[C@H](C(=O)N1CCC[C@H]1c1ncc(-c2ccc3cc(-c4ccc(-c5cnc([C@@H]6CCCN6C(=O)[C@@H](NC(=O)OC)C(C)C)[nH]5)c5c4C4CCC5C4)ccc3c2)[nH]1)C(C)C (some centres unmarked) [Example 48] | 0.029 | 0.043
COC(=O)N[C@H](C(=O)N1CCC[C@H]1C(=O)Nc1ccc(-c2ccc(-c3ccc(-c4cnc([C@@H]5CCCN5C(=O)[C@@H](NC(=O)OC)C(C)C)[nH]4)cc3)c3c2C2CCC3C2)cc1)C(C)C (some centres unmarked) [Example 49] | 0.083 | 0.855
COC(=O)N[C@H](C(=O)N1C[C@H](C)C[C@H]1c1ncc(-c2ccc(-c3ccc(-c4cnc([C@@H]5C[C@@H](C)CN5C(=O)[C@@H](NC(=O)OC)C(C)C)[nH]4)c4c3C3CCC4CC3)cc2)[nH]1)C(C)C [Example 59] | 0.008 | 0.037
COC(=O)N[C@H](C(=O)N1CCCC1c1ncc(-c2ccc(-c3ccc(-c4cnc([C@@H]5CC6(CN5C(=O)[C@@H](NC(=O)OC)C(C)C)OCCO6)[nH]4)cc3)c3c2C2CCC3CC2)[nH]1)C(C)C (some centres unmarked) [Example 61] | 0.011 | 0.088
COC(=O)N[C@H](C(=O)N1CCC[C@H]1c1ncc(-c2ccc(-c3ccc(-c4ccc(-c5cnc([C@@H]6CCCN6C(=O)[C@@H](NC(=O)OC)C(C)C)[nH]5)cc4)c4c3C3CCC4O3)cc2)[nH]1)C(C)C [Example 63] | 0.815 | 2.25
COC(=O)N[C@H](C(=O)N1CCCC1c1nc2ccc(-c3ccc(-c4ccc5nc([C@@H]6CCCN6C(=O)[C@@H](NC(=O)OC)C(C)C)[nH]c5c4)c4c3C3CCC4O3)cc2[nH]1)C(C)C (some centres unmarked) [Example 65] | 0.013 | 0.064
COC(=O)N[C@H](C(=O)N1CCC[C@H]1c1ncc(-c2ccc(-c3ccc(-c4cnc([C@@H]5CCCN5C(=O)[C@@H](NC(=O)OC)C(C)C)[nH]4)c4c3C3CCC4C3)c3c2CCC3)[nH]1)C(C)C (some centres unmarked) [Example 67] | 0.053 | 0.953
[2H]C([2H])([2H])C([2H])(C([2H])([2H])[2H])[C@]([2H])(NC(=O)OC)C(=O)N1CCC[C@H]1c1ncc(-c2ccc(-c3ccc(-c4cnc([C@@H]5CC6CC6N5C(=O)[C@@]([2H])(NC(=O)OC)C([2H])(C([2H])([2H])[2H])C([2H])([2H])[2H])[nH]4)cc3)c3c2C2CCC3C2)[nH]1 (some centres unmarked) [Example 76] | 0.013 | 0.127
[2H]C([2H])([2H])C([2H])(C([2H])([2H])[2H])[C@]([2H])(NC(=O)OC)C(=O)N1CCC[C@H]1c1ncc(-c2ccc(-c3ccc(-c4cnc([C@@H]5CCCN5C(=O)[C@@]([2H])(NC(=O)OC)C([2H])(C([2H])([2H])[2H])C([2H])([2H])[2H])[nH]4)c4c3C3CCC4C3)c(F)c2)[nH]1 (some centres unmarked) [Example 77] | 0.009 | 0.206
[2H]C([2H])([2H])C([2H])(C([2H])([2H])[2H])[C@]([2H])(NC(=O)OC)C(=O)N1CCC[C@H]1c1ncc(-c2ccc(-c3nnc(-c4ccc5[nH]c([C@@H]6CCCN6C(=O)[C@@]([2H])(NC(=O)OC)C([2H])(C([2H])([2H])[2H])C([2H])([2H])[2H])nc5c4)c4c3C3CCC4CC3)cc2)[nH]1 [Example 78] | 0.007 | 0.045
[2H]C([2H])([2H])[C@]([2H])(NC(=O)OC)C(=O)N1C[C@@H](F)C[C@H]1c1ncc(-c2ccc(-c3ccc(-c4cnc([C@@H]5C[C@H](F)CN5C(=O)[C@@]([2H])(NC(=O)OC)C([2H])([2H])[2H])[nH]4)c4c3C3CCC4C3)cc2)[nH]1 (some centres unmarked) [Example 79] | 0.043 | 0.314
